Biological target: T1, KIBRA-PKMζ[PKCι/λ-P291Q;F297S] interaction (Homo sapiens, UniProt Q05513, F480S/P474Q)
T1 construct: expressed in transfected cells; host or cells: HEK293T
T1 sequence (Q05513 184-592 P474Q/F480S): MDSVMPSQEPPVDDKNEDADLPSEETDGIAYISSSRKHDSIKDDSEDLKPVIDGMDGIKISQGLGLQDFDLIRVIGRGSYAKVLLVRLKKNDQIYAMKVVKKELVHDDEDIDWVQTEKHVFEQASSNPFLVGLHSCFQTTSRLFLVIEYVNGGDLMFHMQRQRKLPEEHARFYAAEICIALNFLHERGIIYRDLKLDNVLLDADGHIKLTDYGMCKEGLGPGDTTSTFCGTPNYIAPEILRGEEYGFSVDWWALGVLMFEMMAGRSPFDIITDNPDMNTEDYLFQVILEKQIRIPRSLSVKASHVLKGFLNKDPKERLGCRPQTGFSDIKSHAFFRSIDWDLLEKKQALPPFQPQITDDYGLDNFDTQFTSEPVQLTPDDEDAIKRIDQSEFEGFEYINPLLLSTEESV
Experiment: BiFC assay of KIBRA with mutant PKMζ[PKCι/λ-P291Q;F297S] in HEK293T cells
Format: cell-based
Details: 10 μM
Experimental: KIBRA-PKMζ BiFC was performed as previously described (28), using pVen1-FLAG-KIBRA and pVen2-HA-PKMζ, in which PKMζ was cloned between EcoR1 and BamH1 sites. The constructs pVen1 and pVen2 encode the N-terminus (amino acids 1-154) and C-terminus (amino acids 155-238) of the Venus protein, respectively, and the Venus fragments were on the N-terminal of the fusion proteins. pVen2-HA-PKMζ[PKCι/λ-P291Q;F297S] was generated by site-directed mutagenesis using forward-cctggagAagcAAatceggatcccccggtCcctgtccgte and reverse-gacggacaggGaccgggggatccggatTTgctTctccagg primers and the QuickChange II XL Site-Directed Mutagenesis Kit (Agilent Technologies), following manufacturer's instructions. Additional pVen2-HA-PKC isoforms and pVen2-HA-CaMKIIα in the pVen2-HA vector were generated by cloning the N-terminus of the coding sequence of each kinase (table S1) to obtain an in-frame fusion at the C-terminus of the pVen2-HA. Human versions of KIBRA and kinases were used, and all PCR amplified sequences and constructs were verified by DNA sequencing.
HEK293T cells were cultured in Dulbecco's Modified Eagle's Medium supplemented with 10% heat-inactivated fetal bovine serum, 100 U/ml penicillin, […] streptomycin, 2 mM glutamine, and 10 mM HEPES in a T75 tissue culture flask with canted neck and ventilated cap. […]

SMILES: O=S(=O)(O)c1cc(O)c2c(S(=O)(=O)O)cc(S(=O)(=O)O)cc2c1 [ζ-stat, 1-naphthol-3,6,8-trisulphonic acid]
- effect on KIBRA interaction with mutated PKMζ[PKCι/λ-P291Q;F297S] (BiFC): does not inhibit
- effect on KIBRA interaction with mutated PKMζ[PKCι/λ-P291Q;F297S] (BiFC) (listed as z-stat): has no effects
